Results from ChEMBL document CHEMBL5712083, “Regulation of Epstein-Barr Virus Life Cycle and Cell Proliferation by Histone H3K27 Methyltransferase EZH2 in Akata Cells” (mSphere, 2018).
Activity calls are given as the source filed them. No cut-off for these calls is given here.

Assays:
Format in all cases: cell-based
[1] = target: Histone-lysine N-methyltransferase EZH2 (Homo sapiens) (UniProt Q15910); experiment: Inhibition of EZH2 (unknown origin) in Lymphoblastoid cells assessed as effect on lytic gene EBNA2 at 1 uM for 3 days followed by addition of TPA, A23187 and sodium butyrate for lytic induction for 2 days by qRT-PCR analysis; settings: Lymphoblastoid cell, time 5.0 day
[2] = target: Histone-lysine N-methyltransferase EZH2 (Homo sapiens) (UniProt Q15910); experiment: Inhibition of EZH2 in human EBV-positive Akata cells assessed as effect on lytic gene gp350/200 at 1 uM after 3 days by qRT-PCR analysis; settings: time 3.0 day
[3] = target: Histone-lysine N-methyltransferase EZH2 (Homo sapiens) (UniProt Q15910); experiment: Inhibition of EZH2 (unknown origin) in Lymphoblastoid cells assessed as effect on lytic gene BARTs at 1 uM for 3 days followed by addition of TPA, A23187 and sodium butyrate for lytic induction for 2 days by qRT-PCR analysis; settings: Lymphoblastoid cell, time 5.0 day
[4] = target: Histone-lysine N-methyltransferase EZH2 (Homo sapiens) (UniProt Q15910); experiment: Inhibition of EZH2 (unknown origin) in Lymphoblastoid cells assessed as effect on lytic gene EBER1 at 1 uM for 3 days followed by addition of TPA, A23187 and sodium butyrate for lytic induction for 2 days by qRT-PCR analysis; settings: Lymphoblastoid cell, time 5.0 day
[5] = target: Histone-lysine N-methyltransferase EZH2 (Homo sapiens) (UniProt Q15910); experiment: Inhibition of EZH2 in human EBV-positive Akata cells assessed as effect on cell viability at 1 uM
[6] = target: Histone-lysine N-methyltransferase EZH2 (Homo sapiens) (UniProt Q15910); experiment: Inhibition of EZH2 (unknown origin) in Lymphoblastoid cells assessed as reduction in H3K27me3 levels at 1 uM after 3 days by CHIP assay; settings: Lymphoblastoid cell, time 3.0 day
[7] = target: Histone-lysine N-methyltransferase EZH2 (Homo sapiens) (UniProt Q15910); experiment: Inhibition of EZH2 in human EBV-positive Akata cells assessed as effect on lytic gene BZLF1 at 1 uM after 3 days by qRT-PCR analysis; settings: time 3.0 day
[8] = target: Histone-lysine N-methyltransferase EZH2 (Homo sapiens) (UniProt Q15910); experiment: Inhibition of EZH2 (unknown origin) in Lymphoblastoid cells assessed as effect on lytic gene LMP2 at 1 uM for 3 days followed by addition of TPA, A23187 and sodium butyrate for lytic induction for 2 days by qRT-PCR analysis; settings: Lymphoblastoid cell, time 5.0 day
[9] = target: Histone-lysine N-methyltransferase EZH2 (Homo sapiens) (UniProt Q15910); experiment: Inhibition of EZH2 in human EBV-positive Akata cells assessed as effect on lytic gene BARTs at 1 uM for 3 days followed by addition of ant-IgG for lytic induction for 2 days by qRT-PCR analysis; settings: time 5.0 day
[10] = target: Histone-lysine N-methyltransferase EZH2 (Homo sapiens) (UniProt Q15910); experiment: Inhibition of EZH2 in human EBV-positive Akata cells assessed as effect on lytic gene EBNA1 at 1 uM after 3 days by qRT-PCR analysis; settings: time 3.0 day
[11] = target: Histone-lysine N-methyltransferase EZH2 (Homo sapiens) (UniProt Q15910); experiment: Inhibition of EZH2 in human EBV-positive Akata cells assessed as increase in lytic gene LMP1 at 1 uM after 3 days by qRT-PCR analysis relative control; settings: time 3.0 day
[12] = target: Histone-lysine N-methyltransferase EZH2 (Homo sapiens) (UniProt Q15910); experiment: Inhibition of EZH2 in human EBV-positive Akata cells assessed as effect on lytic gene LMP2 at 1 uM for 3 days followed by addition of ant-IgG for lytic induction for 2 days by qRT-PCR analysis; settings: time 5.0 day
[13] = target: Histone-lysine N-methyltransferase EZH2 (Homo sapiens) (UniProt Q15910); experiment: Inhibition of EZH2 in human EBV-positive Akata cells assessed as increase in lytic gene LMP1 at 1 uM for 3 days followed by addition of ant-IgG for lytic induction for 2 days by qRT-PCR analysis relative to control; settings: time 5.0 day
[14] = target: Histone-lysine N-methyltransferase EZH2 (Homo sapiens) (UniProt Q15910); experiment: Inhibition of EZH2 in human EBV-positive Akata cells assessed as effect on lytic gene BARTs at 1 uM after 3 days by qRT-PCR analysis; settings: time 3.0 day
[15] = target: Histone-lysine N-methyltransferase EZH2 (Homo sapiens) (UniProt Q15910); experiment: Inhibition of EZH2 in human EBV-positive Akata cells assessed as effect on lytic gene EBNA2 at 1 uM after 3 days by qRT-PCR analysis; settings: time 3.0 day
[16] = target: Histone-lysine N-methyltransferase EZH2 (Homo sapiens) (UniProt Q15910); experiment: Inhibition of EZH2 (unknown origin) in Lymphoblastoid cells assessed as effect on lytic gene gp350/200 at 1 uM for 3 days followed by addition of TPA, A23187 and sodium butyrate for lytic induction for 2 days by qRT-PCR analysis; settings: Lymphoblastoid cell, time 5.0 day
[17] = target: Histone-lysine N-methyltransferase EZH2 (Homo sapiens) (UniProt Q15910); experiment: Inhibition of EZH2 in human EBV-positive Akata cells assessed as effect on lytic gene EBNA2 at 1 uM for 3 days followed by addition of ant-IgG for lytic induction for 2 days by qRT-PCR analysis; settings: time 5.0 day
[18] = target: Histone-lysine N-methyltransferase EZH2 (Homo sapiens) (UniProt Q15910); experiment: Inhibition of EZH2 (unknown origin) in Lymphoblastoid cells assessed as effect on lytic gene BZLF1 at 1 uM for 3 days followed by addition of TPA, A23187 and sodium butyrate for lytic induction for 2 days by qRT-PCR analysis; settings: Lymphoblastoid cell, time 5.0 day
[19] = target: Histone-lysine N-methyltransferase EZH2 (Homo sapiens) (UniProt Q15910); experiment: Inhibition of EZH2 in human EBV-positive Akata cells assessed as effect on lytic gene LMP2 at 1 uM after 3 days by qRT-PCR analysis; settings: time 3.0 day
[20] = target: Histone-lysine N-methyltransferase EZH2 (Homo sapiens) (UniProt Q15910); experiment: Inhibition of EZH2 (unknown origin) in Lymphoblastoid cells assessed as effect on lytic gene LMP1 at 1 uM for 3 days followed by addition of TPA, A23187 and sodium butyrate for lytic induction for 2 days by qRT-PCR analysis relative to control; settings: Lymphoblastoid cell, time 5.0 day
[21] = target: Histone-lysine N-methyltransferase EZH2 (Homo sapiens) (UniProt Q15910); experiment: Inhibition of EZH2 in human EBV-positive Akata cells assessed as effect on lytic gene BZLF1 at 1 uM for 3 days followed by addition of ant-IgG for lytic induction for 2 days by qRT-PCR analysis; settings: time 5.0 day
[22] = target: Histone-lysine N-methyltransferase EZH2 (Homo sapiens) (UniProt Q15910); experiment: Inhibition of EZH2 in human EBV-positive Akata cells assessed as reduction in H3K27me3 levels at 1 uM after 3 days by CHIP assay; settings: time 3.0 day
[23] = target: Histone-lysine N-methyltransferase EZH2 (Homo sapiens) (UniProt Q15910); experiment: Inhibition of EZH2 (unknown origin) in Lymphoblastoid cells assessed as effect on lytic gene EBNA1 at 1 uM for 3 days followed by addition of TPA, A23187 and sodium butyrate for lytic induction for 2 days by qRT-PCR analysis; settings: Lymphoblastoid cell, time 5.0 day
[24] = target: Histone-lysine N-methyltransferase EZH2 (Homo sapiens) (UniProt Q15910); experiment: Inhibition of EZH2 in human EBV-positive Akata cells assessed as effect on lytic gene EBER1 at 1 uM for 3 days followed by addition of ant-IgG for lytic induction for 2 days by qRT-PCR analysis; settings: time 5.0 day
[25] = target: Histone-lysine N-methyltransferase EZH2 (Homo sapiens) (UniProt Q15910); experiment: Inhibition of EZH2 in human EBV-positive Akata cells assessed as effect on lytic gene EBNA1 at 1 uM for 3 days followed by addition of ant-IgG for lytic induction for 2 days by qRT-PCR analysis; settings: time 5.0 day
[26] = target: Histone-lysine N-methyltransferase EZH2 (Homo sapiens) (UniProt Q15910); experiment: Inhibition of EZH2 in human EBV-positive Akata cells assessed as reduction in H3K27me3 levels at 1 uM after 3 days by Western blot analysis; settings: time 3.0 day
[27] = target: Histone-lysine N-methyltransferase EZH2 (Homo sapiens) (UniProt Q15910); experiment: Inhibition of EZH2 in human EBV-positive Akata cells assessed as effect on lytic gene EBER1 at 1 uM after 3 days by qRT-PCR analysis; settings: time 3.0 day
[28] = target: Histone-lysine N-methyltransferase EZH2 (Homo sapiens) (UniProt Q15910); experiment: Inhibition of EZH2 (unknown origin) in Lymphoblastoid cells assessed as reduction in H3K27me3 levels at 1 uM after 3 days by Western blot analysis; settings: Lymphoblastoid cell, time 3.0 day
[29] = target: Histone-lysine N-methyltransferase EZH2 (Homo sapiens) (UniProt Q15910); experiment: Inhibition of EZH2 in human EBV-positive Akata cells assessed as effect on lytic gene gp350/200 at 1 uM for 3 days followed by addition of ant-IgG for lytic induction for 2 days by qRT-PCR analysis; settings: time 5.0 day

Histone-lysine N-methyltransferase EZH2 (Homo sapiens), sequence (Q15910 whole entry, looked up): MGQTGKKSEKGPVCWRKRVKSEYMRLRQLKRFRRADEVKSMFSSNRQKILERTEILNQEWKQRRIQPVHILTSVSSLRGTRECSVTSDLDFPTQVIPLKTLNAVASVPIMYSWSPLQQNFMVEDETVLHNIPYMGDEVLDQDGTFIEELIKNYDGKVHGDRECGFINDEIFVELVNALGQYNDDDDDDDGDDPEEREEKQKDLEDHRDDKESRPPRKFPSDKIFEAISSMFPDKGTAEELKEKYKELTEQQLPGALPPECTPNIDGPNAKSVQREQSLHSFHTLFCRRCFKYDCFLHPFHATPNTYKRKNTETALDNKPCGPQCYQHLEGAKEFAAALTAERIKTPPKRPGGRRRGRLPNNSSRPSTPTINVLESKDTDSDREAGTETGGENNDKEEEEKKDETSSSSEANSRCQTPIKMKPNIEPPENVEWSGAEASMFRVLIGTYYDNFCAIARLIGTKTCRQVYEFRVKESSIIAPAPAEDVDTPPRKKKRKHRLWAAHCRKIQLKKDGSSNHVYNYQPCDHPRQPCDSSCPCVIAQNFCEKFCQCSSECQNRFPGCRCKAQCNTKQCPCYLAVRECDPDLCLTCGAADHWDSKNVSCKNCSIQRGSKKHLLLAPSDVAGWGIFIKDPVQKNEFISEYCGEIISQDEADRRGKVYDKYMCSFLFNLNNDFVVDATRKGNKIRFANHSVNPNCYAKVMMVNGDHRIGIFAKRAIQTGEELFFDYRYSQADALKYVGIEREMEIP

CCCc1cc(C)[nH]c(=O)c1CNC(=O)c1cc(-c2ccnc(N3CCN(C)CC3)c2)cc2c1cnn2C(C)C
inhibition [1]: inactive
inhibition [2]: inactive
inhibition [3]: inactive
inhibition [4]: inactive
inhibition [5]: inactive
inhibition [6]: Active
inhibition [7]: inactive
inhibition [8]: inactive
inhibition [9]: inactive
inhibition [10]: inactive
fold change (FC) [11]: 2.6
inhibition [12]: inactive
fold change (FC) [13]: 6.7
inhibition [14]: inactive
inhibition [15]: inactive
inhibition [16]: inactive
inhibition [17]: inactive
inhibition [18]: inactive
inhibition [19]: inactive
fold change (FC) [20]: 8.3
inhibition [21]: inactive
inhibition [22]: Active
inhibition [23]: inactive
inhibition [24]: inactive
inhibition [25]: inactive
inhibition [26]: Active
inhibition [27]: inactive
inhibition [28]: Active
inhibition [29]: inactive
